In brackets after ≈: the same amount, converted by molar mass. Activity calls are given as the source filed them. The rule behind the calls is not given here.
Key:
Acinetobacter baumannii [1] = assay: Antibacterial activity against multi-drug resistant Acinetobacter baumannii 3 clinical isolate assessed as bacterial growth inhibition in presence of CAMHB medium by broth microdilution method; type: functional
Escherichia coli [2] = assay: Induction of morphological changes in Escherichia coli ATCC 25922 assessed as appearance of incomplete outer membrane in presence of LB medium incubated for 12 hrs by transmission electron microscopic analysis; type: functional, organism-based
Escherichia coli [3] = assay: Induction of morphological changes in Escherichia coli ATCC 25922 assessed as cell elongation in presence of LB medium measured after 1 to 3 hrs by crystal violet staining based light microscopic analysis; type: functional, organism-based; conditions: time 1-3 hrs
Acinetobacter baumannii [4] = assay: Antibacterial activity against multi-drug resistant Acinetobacter baumannii 4 clinical isolate assessed as bacterial growth inhibition in presence of CAMHB medium by broth microdilution method; type: functional
Acinetobacter baumannii [5] = assay: Antibacterial activity against multi-drug resistant Acinetobacter baumannii 1 clinical isolate assessed as bacterial growth inhibition in presence of CAMHB medium by broth microdilution method; type: functional
Pseudomonas aeruginosa = assay: Antibacterial activity against Pseudomonas aeruginosa PAO1 assessed as bacterial growth inhibition in presence of CAMHB medium by broth microdilution method; type: functional
Escherichia coli [6] = assay: Induction of outer membrane damage in Escherichia coli ATCC 25922 assessed as increase in EtBr fluorescence intensity in presence of LB medium incubated for 12 hrs by fluorescence plate-reader analysis; type: functional, organism-based
Escherichia coli [7] = assay: Antibacterial activity against multi-drug resistant Escherichia coli 2 clinical isolate assessed as bacterial growth inhibition in presence of CAMHB medium by broth microdilution method; type: functional
Escherichia coli [8] = assay: Antibacterial activity against Escherichia coli ATCC 25922 infected in Galleria mellonella assessed as increase in larvae survival rate at 10 mg/kg measured after 6 days post-inoculation relative to control; type: functional; conditions: ATCC 25922, 144 h, time 6 day
Saccharomyces cerevisiae = assay: Antimicrobial activity against yeast AH109 expressing T/53 assessed as growth inhibition incubated for 48 hrs; type: functional
Escherichia coli [9] = assay: Antibacterial activity against ESBL(+) producing Escherichia coli ATCC 35218 assessed as bacterial growth inhibition in presence of CAMHB medium by broth microdilution method; type: functional
Acinetobacter baumannii [10] = assay: Antibacterial activity against Acinetobacter baumannii ATCC 19606 assessed as bacterial growth inhibition in presence of CAMHB medium by broth microdilution method; type: functional
[11] = Selectivity index, ratio of MIC for antimicrobial activity against yeast AH109 expressing T/53 to MIC for inhibition of LptA /LptC (unknown origin) interaction expressed in yeast AH109
Escherichia coli [12] = assay: Antibacterial activity against multi-drug resistant Escherichia coli 5 clinical isolate assessed as bacterial growth inhibition in presence of CAMHB medium by broth microdilution method; type: functional
Escherichia coli [13] = assay: Antibacterial activity against multi-drug resistant Escherichia coli 4 clinical isolate assessed as bacterial growth inhibition in presence of CAMHB medium by broth microdilution method; type: functional
[14] = Inhibition of LptA /LptC (unknown origin) interaction expressed in yeast AH109 assessed as growth inhibition incubated for 48 hrs
Escherichia coli [15] = assay: Antibacterial activity against multi-drug resistant Escherichia coli 1 clinical isolate assessed as bacterial growth inhibition in presence of CAMHB medium by broth microdilution method; type: functional
Acinetobacter baumannii [16] = assay: Antibacterial activity against multi-drug resistant Acinetobacter baumannii 2 clinical isolate assessed as bacterial growth inhibition in presence of CAMHB medium by broth microdilution method; type: functional
Escherichia coli [17] = assay: Antibacterial activity against Escherichia coli ATCC 25922 assessed as bacterial growth inhibition in presence of CAMHB medium by broth microdilution method; type: functional
Acinetobacter baumannii [18] = assay: Antibacterial activity against multi-drug resistant Acinetobacter baumannii 5 clinical isolate assessed as bacterial growth inhibition in presence of CAMHB medium by broth microdilution method; type: functional
[19] = Binding affinity to His-tagged LptA (unknown origin) assessed as dissociation constant incubated for 60 to 120 s by BLI analysis
Escherichia coli [20] = assay: Induction of morphological changes in Escherichia coli ATCC 25922 assessed as appearance of filamentous cell in presence of LB medium measured after 1 to 3 hrs by crystal violet staining based light microscopic analysis; type: functional, organism-based; conditions: time 1-3 hrs
Klebsiella pneumoniae = assay: Antibacterial activity against Klebsiella pneumoniae ATCC […] assessed as bacterial growth inhibition in presence of CAMHB medium by broth microdilution method; type: functional
Escherichia coli [21] = assay: Antibacterial activity against Escherichia coli ATCC 25922 infected in Galleria mellonella assessed as increase in larvae survival rate measured upto 96 hrs; type: functional, organism-based; conditions: dose 1.25-10 mg/kg
[22] = Cytotoxicity against green monkey Vero cells incubated for 48 hrs by CCK-8 assay; type: toxicity, cell-based; conditions: green monkey (Chlorocebus sabaeus)
Escherichia coli [23] = assay: Antibacterial activity against multi-drug resistant Escherichia coli 3 clinical isolate assessed as bacterial growth inhibition in presence of CAMHB medium by broth microdilution method; type: functional
[24] = Cytotoxicity against dog MDCK cells incubated for 48 hrs by CCK-8 assay; type: toxicity, cell-based; conditions: dog (Canis lupus familiaris)
Escherichia coli [25] = assay: Antibacterial activity against Escherichia coli ATCC 25922 infected in Galleria mellonella assessed as increase in larvae survival rate at 1.25 mg/kg measured upto 96 hrs relative to control; type: functional

Structure (SMILES) | MIC (Acinetobacter baumannii [1]) [µg/mL] | MIC (Acinetobacter baumannii [4]) [µg/mL] | MIC (Acinetobacter baumannii [5]) [µg/mL] | MIC (Pseudomonas aeruginosa) [µg/mL] | MIC (Escherichia coli [7]) [µg/mL] | MIC (Saccharomyces cerevisiae) [µg/mL] | MIC (Escherichia coli [9]) [µg/mL] | MIC (Acinetobacter baumannii [10]) [µg/mL] | Selectivity Index [11] | MIC (Escherichia coli [12]) [µg/mL] | MIC (Escherichia coli [13]) [µg/mL] | MIC [14] [µg/mL] | MIC (Escherichia coli [15]) [µg/mL] | MIC (Acinetobacter baumannii [16]) [µg/mL] | MIC (Escherichia coli [17]) [µg/mL] | MIC (Acinetobacter baumannii [18]) [µg/mL] | MIC (Klebsiella pneumoniae) [µg/mL] | IC50 at 48 h [22] [µg/mL] | MIC (Escherichia coli [23]) [µg/mL] | IC50 at 48 h [24] [µg/mL] | further results
Clc1ccc(CN2COc3c(cc(Cl)c4cccnc34)C2)cc1 | 12.5 | 12.5 | 12.5 | 25 | 50 | 25 (≈ 72.4 µM) | 25 | 3.12 | 2 | 50 | 50 | 12.5 (≈ 36.2 µM) | 50 | 6.25 | 6.25 | 6.25 | 50 | > 50 | 50 | 47.8 (≈ 138 µM) | Activity (Escherichia coli [2]): Active; Activity (Escherichia coli [3]): Active; Activity (Escherichia coli [6]): Dose-dependent-effect; survival at 10 mg/kg (Escherichia coli [8]): 80%; Kd [19]: 54.4 nM; Activity (Escherichia coli [20]): Active; Activity (Escherichia coli [21]): Dose-dependent-effect; survival at 1.25 mg/kg (Escherichia coli [25]): 50%
Clc1cc2c(c3ncccc13)OCN(CCCc1ccccc1)C2 | 12.5 | 12.5 | 6.25 | 50 | 50 | 25 (≈ 73.8 µM) | 25 | 3.12 | 4 | 50 | 50 | 6.25 (≈ 18.4 µM) | 50 | 12.5 | 6.25 | 6.25 | 100 | > 50 | 50 | 43.8 (≈ 129 µM) | Activity (Escherichia coli [2]): Active; Activity (Escherichia coli [3]): Active; Activity (Escherichia coli [6]): Dose-dependent-effect; survival at 10 mg/kg (Escherichia coli [8]): 70%; Kd [19]: 32.2 nM; Activity (Escherichia coli [20]): Active; Activity (Escherichia coli [21]): Dose-dependent-effect; survival at 1.25 mg/kg (Escherichia coli [25]): 60%
Clc1cc2c(c3ncccc13)OCN(CCc1ccccc1)C2 | 100 | 100 | 100 | 50 | 50 | 25 (≈ 77 µM) | > 100 | 3.12 | 2 | 50 | 50 | 12.5 (≈ 38.5 µM) | 50 | 100 | 6.25 | 100 | 100 | 14.3 (≈ 44.2 µM) | 50 | 7.24 (≈ 22.3 µM) | Kd [19]: 1.49 nM
Fc1cc2c(c3ncccc13)OCN(CCc1cccc(Br)c1)C2 | 25 | 12.5 | 250 | 100 | 50 | – | 25 | 6.25 | – | 50 | 50 | – | 50 | 25 | 6.25 | 12.5 | 50 | > 50 | 50 | 32 (≈ 82.5 µM) | –
Fc1ccc(CN2COc3c(cc(Cl)c4cccnc34)C2)c(F)c1 | 50 | 25 | 50 | 100 | 50 | – | > 100 | 3.12 | – | 50 | 50 | – | 50 | 25 | 6.25 | 50 | 50 | > 50 | 50 | 34.2 (≈ 98.6 µM) | –
Fc1cc2c(c3ncccc13)OCN(CCc1ccc(Br)cc1)C2 | 12.5 | 25 | 12.5 | 100 | 50 | – | 25 | 3.12 | – | 50 | 50 | – | 50 | 3.12 | 6.25 | 6.25 | 100 | > 50 | 50 | 44.9 (≈ 116 µM) | –
